Publication PMC8658824, “ThermoSlope: A Software for Determining Thermodynamic Parameters from Single Steady-State Experiments” (Molecules, 2021)

T1: Pseudoalteromonas haloplanktis α-amylase (AHA) (Pseudoalteromonas haloplanktis, UniProt P29957)
T1 construct: gene amy; recombinant, E. coli, same protocol as pLipA (IMAC, then HiTrap SP)
T1 sequence (P29957 25-477): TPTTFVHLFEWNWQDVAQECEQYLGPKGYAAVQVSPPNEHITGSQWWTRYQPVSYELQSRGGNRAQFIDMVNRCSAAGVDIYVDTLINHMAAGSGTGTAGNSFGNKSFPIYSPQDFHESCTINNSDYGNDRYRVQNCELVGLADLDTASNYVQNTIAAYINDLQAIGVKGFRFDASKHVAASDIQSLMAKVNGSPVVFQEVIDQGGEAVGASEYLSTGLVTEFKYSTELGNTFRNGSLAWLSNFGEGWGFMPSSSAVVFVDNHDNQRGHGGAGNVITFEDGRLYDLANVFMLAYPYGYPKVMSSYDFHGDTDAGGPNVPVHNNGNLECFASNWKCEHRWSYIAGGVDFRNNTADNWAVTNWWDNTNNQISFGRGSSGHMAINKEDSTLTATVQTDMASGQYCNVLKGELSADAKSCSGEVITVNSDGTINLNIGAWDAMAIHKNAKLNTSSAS

T2: Pig porcine α-amylase (PPA) (Sus scrofa, UniProt P00690)
T2 construct: gene AMY2; commercial native enzyme (Sigma-Aldrich A4268)
T2 sequence (P00690 16-511): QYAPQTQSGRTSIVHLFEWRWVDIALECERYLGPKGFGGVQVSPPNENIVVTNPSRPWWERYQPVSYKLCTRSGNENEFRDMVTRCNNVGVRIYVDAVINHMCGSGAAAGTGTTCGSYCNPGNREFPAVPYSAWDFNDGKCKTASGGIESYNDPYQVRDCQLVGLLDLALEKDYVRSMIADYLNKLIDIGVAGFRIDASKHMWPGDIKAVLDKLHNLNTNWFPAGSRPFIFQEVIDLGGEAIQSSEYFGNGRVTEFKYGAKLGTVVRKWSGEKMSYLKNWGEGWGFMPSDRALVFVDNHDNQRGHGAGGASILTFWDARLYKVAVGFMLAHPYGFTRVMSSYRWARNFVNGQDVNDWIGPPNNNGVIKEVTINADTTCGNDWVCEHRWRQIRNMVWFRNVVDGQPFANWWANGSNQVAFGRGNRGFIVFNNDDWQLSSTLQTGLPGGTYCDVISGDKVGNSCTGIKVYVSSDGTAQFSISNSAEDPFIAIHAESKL


Columns and labels:
[1] = biological target: T1, Pseudoalteromonas haloplanktis α-amylase (AHA); experiment: colourimetric, […] nm, temperature gradient (ThermoSlope); type: biochemical; details: phosphate buffered saline; 60 nM enzyme; 283-306 K, 1 K/min
[2] = biological target: T3, Bacillus licheniformis α-amylase (BLA) (Bacillus licheniformis, UniProt P06278); experiment: as above; type: biochemical; details: phosphate buffered saline; 3.8 µM enzyme; 303-363 K, 2 K/min
T3 construct: gene amyS; commercial enzyme (Sigma-Aldrich A3403)

[3] = biological target: T2, Pig porcine α-amylase (PPA); experiment: as above; type: biochemical; details: phosphate buffered saline; 0.45 nM enzyme; 283-363 K, 1 K/min
purified protein = substrate: CCCC(=O)Oc1ccc([N+](=O)[O-])cc1; experiment: purified protein; type: biochemical, Bacillus pumilus; details: 298 K, 50 mM potassium phosphate pH 7.2, 5% acetonitrile, 1 nM enzyme, stepwise approach, 25.0 °C

T3 sequence (P06278 30-512): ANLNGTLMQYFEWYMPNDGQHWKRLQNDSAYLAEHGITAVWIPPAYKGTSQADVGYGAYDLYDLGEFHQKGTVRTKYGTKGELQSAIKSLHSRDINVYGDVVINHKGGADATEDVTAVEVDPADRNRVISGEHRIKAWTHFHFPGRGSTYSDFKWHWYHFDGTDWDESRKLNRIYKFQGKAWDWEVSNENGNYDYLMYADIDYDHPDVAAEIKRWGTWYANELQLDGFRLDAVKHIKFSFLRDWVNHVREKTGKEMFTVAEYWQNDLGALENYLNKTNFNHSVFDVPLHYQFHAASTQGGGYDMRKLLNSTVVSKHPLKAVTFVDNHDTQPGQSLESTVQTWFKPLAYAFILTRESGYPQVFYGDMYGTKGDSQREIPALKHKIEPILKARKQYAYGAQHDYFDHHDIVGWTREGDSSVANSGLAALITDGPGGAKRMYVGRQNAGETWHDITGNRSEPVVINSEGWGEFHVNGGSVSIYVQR

Molecule | colourimetric, 405 nm, temperature gradient (ThermoSlope) [1] | colourimetric, 405 nm, temperature gradient (ThermoSlope) [2] | colourimetric, 405 nm, temperature gradient (ThermoSlope) [3] | Km (purified protein) [µM] | kcat (purified protein) [s⁻¹]
O=[N+]([O-])c1ccc(O[C@H]2O[C@H](CO)[C@@H](O[C@H]3O[C@H](CO)[C@@H](O[C@H]4O[C@H](CO)[C@@H](O)[C@H](O)[C@H]4O)[C@H](O)[C@H]3O)[C@H](O)[C@H]2O)c(Cl)c1 [2-Chloro-4-nitrophenyl-α-D-maltotrioside] | α-amylases were completed in a similar fashion using the ThermoSlope-approach with the chromogenic substrate | α-amylases were completed in a similar fashion using the ThermoSlope-approach with the chromogenic substrate | α-amylases were completed in a similar fashion using the ThermoSlope-approach with the chromogenic substrate | – | –
pLipA (Bacillus pumilus LipA; Lipase L5) (Bacillus pumilus) (protein, residues 35-215, codon-optimised synthetic gene in pET-22b(+) NdeI/XhoI, His-tag purified (tag removal not mentioned), E. coli NiCo21(DE3)) AEHNPVVMVHGMGGASYNFASIKSYLVTQGWDRNQLFAIDFIDKTGNNRNNGPRLSRFVKDVLGKTGAKKVDIVAHSMGGANTLYYIKNLDGGDKIENVVTLGGANGLVSLRALPGTDPNQKILYTSVYSSADMIVVNSLSRLIGARNVLIHGVGHISLLASSQVKGYIKEGLNGGGQNTN | – | – | – | 500 ± 100 | 310 ± 20
